In experiment [1] the test system is HCT116. Kind of experiment: Cell proliferation inhibition assay (MTT/MTS). The experiment is classed as cell-based. The following applies: Homo sapiens, HCT-116, Table 1, 72 h with compound. As for the experimental part: Compounds were evaluated for their ability to inhibit cell proliferation, using an assay that measures mitochondrial metabolic activity, that is directly correlated with cell numbers. Cells were plated at 2000 cells/well in 96-well plates and were cultured for 24 h in RPMI-1640 supplemented with 2% fetal bovine serum, before test compounds were added. Compounds were diluted in culture medium such that the final concentration of dimethyl sulfoxide never exceeded 1%. Following the addition of compounds, the cells were cultured for an additional 72 h before cell viability was determined by measuring the conversion of 3-(4,5-dimethylthiazol-2-yl)-2,5-diphenyltetrazolium bromide (MTT) dye using the CellTiter96 kit (Promega) or by measuring the conversion of [3-(4,5-dimethylthiazol-2-yl)-5-(3-carboxymethoxyphenyl)-2-(4-sulfophenyl)-2H-tetrazolium (MTS) dye using the CELLTITER 96® AQueous (Promega).

For experiment [2], the target named is T1, CK2A2 (CK2α′/β) (Homo sapiens, UniProt P19784).
T1 construct: made in house
Put plainly: CK2 kinase assay, CK2A2 (CK2α′/β). The experiment is classed as biochemical. To be noted: Table 1; read-out: CK2A2 (CK2α′/β) (IC50). Here is the method: (§1) The effectiveness of compounds of the present invention as inhibitors of protein kinases can be readily tested by assays known to those skilled in the art. For example, in vitro protein kinase assays may be conducted with a relevant purified protein kinase and an appropriate synthetic substrate to determine the inhibitory activity of the compounds. […] Reaction mixtures were incubated at 30° C. for 1 hour, and reaction products were captured by binding to phosphocellulose (P81) filter plates. Incorporation of radioactive phosphate into the peptide substrate was determined by liquid scintillation counting. The potency of compounds in inhibiting CK2 is expressed as IC50, defined as the concentrations of compounds required to inhibit the enzymatic activity by 50%.
(§2) The inhibitory activity of the instant compounds may also be measured by recombinant CK2 holoenzyme kinase assays. The assays were performed in U-bottom 384-well plates. The final assay volume was 30 μl prepared from 15 μl additions of enzyme and substrates (fluoresceinated peptide FL-RRRADDSDDDDD-NH2 and ATP) and test compounds in assay buffer (20 mM HEPES pH 7.4, 10 mM MgCl2, 100 mM NaCl, 0.015% Brij35 and 0.25 mM DTT). The reaction was initiated by the combination of bacterially expressed, CK2 α/β or CK2 α′/β holoenzyme with substrates and test compounds. The reaction was incubated at room temperature for 60 minutes and terminated by adding 30 μl of 35 mM EDTA to each sample. The reaction mixture was analyzed on the Caliper LABCHIP® 3000 (Caliper, Hopkinton, Mass.) by electrophoretic separation of the fluorescent substrate and phosphorylated product. Inhibition data were calculated by comparison to no enzyme control reactions for 100% inhibition and vehicle-only reactions for 0% inhibition. The final concentration of reagents in the CK2 α/β assay was 25 μM ATP, 1.5 μM FL-RRRADDSDDDDD-NH2, […] CK2 α/β holoenzyme, and 1.6% DMSO. The final concentration of reagents in the CK2 α′/β assay was 10 μM ATP, 1.5 μM FL-RRRADDSDDDDD-NH2, 100 pM CK2 α′/β holoenzyme, and 1.6% DMSO. Dose response curves were generated to determine the concentration required inhibiting 50% of kinase activity (IC50). Compounds were dissolved at 10 mM in dimethylsulfoxide (DMSO) and evaluated at eleven concentrations. IC50 values were derived by non-linear regression analysis.

Experiment [3] addresses T2, CK2A1 (CK2α/β) (Homo sapiens, UniProt P68400).
T2 construct: made in house
Put plainly: CK2 kinase assay, CK2A1 (CK2α/β). The experiment is classed as biochemical. To be noted: Table 1; read-out: CK2A1 (CK2α/β) (IC50). As for the experimental part: as §1, §2

T2 sequence (P68400 whole entry, species assumed): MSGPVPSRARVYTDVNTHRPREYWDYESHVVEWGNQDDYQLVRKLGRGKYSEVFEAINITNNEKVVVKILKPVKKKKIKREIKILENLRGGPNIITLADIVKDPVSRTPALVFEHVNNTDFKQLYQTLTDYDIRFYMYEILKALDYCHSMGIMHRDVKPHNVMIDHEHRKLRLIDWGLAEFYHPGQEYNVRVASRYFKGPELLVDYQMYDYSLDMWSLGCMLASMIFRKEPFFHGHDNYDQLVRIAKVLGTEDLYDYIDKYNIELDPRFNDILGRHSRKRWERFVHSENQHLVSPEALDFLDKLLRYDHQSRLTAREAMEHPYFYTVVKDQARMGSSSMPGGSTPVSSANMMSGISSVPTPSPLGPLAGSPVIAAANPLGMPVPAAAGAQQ
T2 sequence (P67870 whole entry partner, species assumed): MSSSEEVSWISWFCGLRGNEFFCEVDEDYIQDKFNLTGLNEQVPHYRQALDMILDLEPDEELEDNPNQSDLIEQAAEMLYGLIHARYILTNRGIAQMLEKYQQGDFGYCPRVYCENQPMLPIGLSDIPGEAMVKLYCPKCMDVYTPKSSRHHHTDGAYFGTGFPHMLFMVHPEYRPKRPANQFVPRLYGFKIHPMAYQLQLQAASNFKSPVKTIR
T1 sequence (P19784 whole entry, species assumed): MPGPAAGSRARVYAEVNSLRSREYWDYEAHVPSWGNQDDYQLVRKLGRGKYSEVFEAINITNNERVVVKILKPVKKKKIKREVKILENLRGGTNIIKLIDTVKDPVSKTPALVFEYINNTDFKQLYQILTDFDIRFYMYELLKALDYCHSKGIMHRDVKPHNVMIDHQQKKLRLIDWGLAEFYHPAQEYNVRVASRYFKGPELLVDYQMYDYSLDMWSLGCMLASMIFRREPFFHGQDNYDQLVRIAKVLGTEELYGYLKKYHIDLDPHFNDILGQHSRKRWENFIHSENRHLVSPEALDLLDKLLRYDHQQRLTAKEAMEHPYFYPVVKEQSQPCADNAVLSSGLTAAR
T1 sequence (P67870 whole entry partner, species assumed): as the sequence (P67870 whole entry partner, species assumed) above

Regarding `Cc1cc(O)nc2cc(Nc3cc(NC4CC4)c4ncc(C#N)n4n3)ccc12` [Example 58, 8-(Cyclopropylamino)-6-((4-methyl-2-oxo-1,2-dihydro-7-quinolinyl)amino)imidazo[1,2-b]pyridazine-3-carbonitrile], the IC50 in experiment [1] is 98 nM; in experiment [2], 2.2 nM; in experiment [3], 12.2 nM.

Turning to `CC(=O)N1CCc2ccc(Nc3cc(NC4CC4)c4ncc(C#N)n4n3)cc21` [Example 64, 6-((1-Acetyl-2,3-dihydro-1H-indol-6-yl)amino)-8-(cyclopropylamino)imidazo [1,2-b]pyridazine-3-carbonitrile], the IC50 came out at 48 nM in experiment [1], 1 nM in experiment [2] and 12 nM in experiment [3].

`CC(C)C(=O)Nc1cccc(Nc2cc(NC3CC3)c3ncc(C#N)n3n2)c1` [Example 66, N-(3-((3-Cyano-8-(cyclopropylamino)imidazo [1,2-b]pyridazin-6-yl)amino)phenyl)-2-methylpropanamide]: the IC50 in experiment [1] is over 2500 nM; in experiment [2], 778 nM; in experiment [3] it was 6060 nM.

As to `N#Cc1cnc2c(NC3CC3)cc(Nc3cccc(C(N)=O)c3)nn12` [Example 71, 3-((3-Cyano-8-(cyclopropylamino)imidazo [1,2-b]pyridazin-6-yl)amino) benzamide], the IC50 amounted to 945 nM in experiment [1], 15.6 nM in experiment [2] and 261 nM in experiment [3].

As for `N#Cc1cnc2c(NC3CC3)cc(Nc3cccc(N4CCCC4=O)c3)nn12` [Example 73, 8-(Cyclopropylamino)-6-((3-(2-oxo-1-pyrrolidinyl)phenyl)amino)imidazo[1,2-b]pyridazine-3-carbonitrile], the IC50 is 2240 nM in experiment [1], 738 nM in experiment [2] and 4600 nM in experiment [3].

For `Cc1nc(-c2cccc(Nc3cc(NC4CC4)c4ncc(C#N)n4n3)c2)cs1` [Example 80, 8-(Cyclopropylamino)-6-((3-(2-methyl-1,3-thiazol-4-yl)phenyl)amino)imidazo[1,2-b]pyridazine-3-carbonitrile], the IC50 is over 1000 nM in experiment [1], 1490 nM in experiment [2] and 4660 nM in experiment [3].

`N#Cc1cnc2c(NC3CC3)cc(Nc3ccc(Cl)c(-c4ncco4)c3)nn12` [Example 81, 6-((4-Chloro-3-(1,3-oxazol-2-yl)phenyl)amino)-8-(cyclopropylamino)imidazo [1,2-b]pyridazine-3-carbonitrile]: the figures for the IC50 in experiment [1], in experiment [2] and in experiment [3] were over 1000 nM, 115 nM and 512 nM, respectively.

Turning to `N#Cc1cnc2c(NC3CC3)cc(Nc3cccc(-c4nnco4)c3)nn12` [Example 82, 8-(Cyclopropylamino)-6-((3-(1,3,4-oxadiazol-2-yl)phenyl)amino)imidazo[1,2-b]pyridazine-3-carbonitrile], the IC50 is 127 nM in experiment [1], 126 nM in experiment [2] and 479 nM in experiment [3].

Regarding `CN1CCN(C(=O)c2ccc(Nc3cc(NC4CC4)c4ncc(C#N)n4n3)cc2N)CC1` [Example 89, 6-((3-Amino-4-((4-methyl-1-piperazinyl)carbonyl)phenyl)amino)-8-(cyclopropylamino)imidazo [1,2-b]pyridazine-3-carbonitrile], the IC50 in experiment [1] was over 1000 nM; in experiment [2], 940 nM; in experiment [3] it was 6670 nM.

As for `COC(=O)Nc1cc(Nc2cc(NC3CC3)c3ncc(C#N)n3n2)ccc1C(=O)N1CCN(C)CC1` [Example 93, Methyl (5-((3-cyano-8-(cyclopropylamino)imidazo [1,2-b]pyridazin-6-yl)amino)-2-((4-methyl-1-piperazinyl)carbonyl)phenyl) carbamate], the IC50 was over 1000 nM in experiment [1], 68.4 nM in experiment [2] and 712 nM in experiment [3].

Take `COC(=O)Nc1cc(Nc2cc(NC3CC3)c3ncc(C#N)n3n2)ccc1C` [Example 95, Methyl (5-((3-cyano-8-(cyclopropylamino)imidazo [1,2-b]pyridazin-6-yl)amino)-2-methylphenyl) carbamate]: the IC50 in experiment [1] came to 22 nM; in experiment [2] it was 3 nM; in experiment [3], 6.5 nM.

With `COc1ccc(Nc2cc(Nc3ccc(OC(F)(F)F)c(-n4cnnc4)c3)nn3c(C#N)cnc23)nc1` [Example 111, 8-((5-Methoxy-2-pyridinyl)amino)-6-((3-(4H-1,2,4-triazol-4-yl)-4-(trifluoromethoxy)phenyl)amino)imidazo[1,2-b] pyridazine-3-carbonitrile], the IC50 amounted to 34 nM in experiment [1], 24 nM in experiment [2] and 116 nM in experiment [3].

As for `COc1ccc(-n2cncn2)cc1Nc1cc(NC2CC2)c2ncc(C#N)n2n1` [Example 160, 8-(Cyclopropylamino)-6-((2-methoxy-5-(1H-1,2,4-triazol-1-yl)phenyl)amino)imidazo [1,2-b]pyridazine-3-carbonitrile], the IC50 in experiment [1] was found to be 45 nM; in experiment [2] it was 4.6 nM; in experiment [3], 19.7 nM.

`N#Cc1cnc2c(NC3CC3)cc(Nc3cc(-n4cncn4)ccc3OC(F)(F)F)nn12` [Example 167, 8-(Cyclopropylamino)-6-((5-(1H-1,2,4-triazol-1-yl)-2-(trifluoromethoxy)phenyl)amino)imidazo[1,2-b]pyridazine-3-carbonitrile]: the results for the IC50 in experiment [1], in experiment [2] and in experiment [3] were over 1000 nM, 12.5 nM and 103 nM, respectively.

As for `N#Cc1ccnc(Nc2cc(NC3CC3)c3ncc(C#N)n3n2)c1` [Example 168, 6-((4-Cyano-2-pyridinyl)amino)-8-(cyclopropylamino) imidazo[1,2-b]pyridazine-3-carbonitrile], the results for the IC50 in experiment [1], in experiment [2] and in experiment [3] were 128 nM, 4.9 nM and 11.9 nM, respectively.

Consider `Cc1ccc(Nc2cc(Nc3ccccn3)c3ncc(C#N)n3n2)cc1C#N` [Example 196, 6-((3-Cyano-4-methylphenyl)amino)-8-(2-pyridinylamino)imidazo[1,2-b]pyridazine-3-carbonitrile], for which the IC50 came to 65 nM in experiment [1], 3.4 nM in experiment [2] and 12.2 nM in experiment [3].

Turning to `N#Cc1cnc2c(NC3CC3)cc(Nc3cccc(-c4cccnc4)c3)nn12` [Example 214, 8-(Cyclopropylamino)-6-((3-(3-pyridinyl)phenyl)amino) imidazo[1,2-b]pyridazine-3-carbonitrile], the IC50 in experiment [1] was over 10000 nM; in experiment [2], 119 nM; in experiment [3], 596 nM.

Turning to `Cc1ccc(Nc2cc(NC3CC3)c3ncc(C#N)n3n2)cc1CC(=O)O` [Example 224, (5-((3-Cyano-8-(cyclopropylamino)imidazo [1,2-b]pyridazin-6-yl)amino)-2-methylphenyl) acetic acid], the IC50 in experiment [1] is over 10000 nM; in experiment [2] it was 126 nM; in experiment [3], 794 nM.

For `Cc1cc(Cl)c(Nc2cc(NC3CC3)c3ncc(C#N)n3n2)cc1C#N` [Example 225, 6-((2-Chloro-5-cyano-4-methylphenyl)amino)-8-(cyclopropylamino)imidazo [1,2-b]pyridazine-3-carbonitrile], the IC50 in experiment [1] came to 35 nM; in experiment [2] it was 1.1 nM; in experiment [3] it was 8.2 nM.

In the case of `COc1ccc(C#N)cc1Nc1cc(N)c2ncc(C#N)n2n1` [Example 228, 8-Amino-6-((5-cyano-2-methoxyphenyl)amino) imidazo[1,2-b]pyridazine-3-carbonitrile], the IC50 was found to be 327 nM in experiment [1], 1.7 nM in experiment [2] and 9 nM in experiment [3].

(Values after patent US9371328B2, “Imidazopyridazinecarbonitriles useful as kinase inhibitors” (BRISTOL-MYERS SQUIBB COMPANY, priority 2008, dated 2016).)
